Assay [1] deals with Lin^−/CD34^+/CD38^−/CD123^+ cancer stem cells in KG1a cells. Nature of the assay: Immunophenotypic quantification of the leukaemic stem cell compartment in KG1a cells. In kind it is cell-based, human. Particulars: for selectivity against cancer stem cells compared to the parent compound / proportion of cancer stem cells as compared to non-stem cancer cells after treatment / low concentration at which the selective reduction of cancer stem cells was still observed: KG1a cells; for proportion of cancer stem cells as compared to non-stem cancer cells after treatment: 72 h; for selectivity for cancer stem cells as opposed to non-stem cancer cells (summary): summary statement of the description. The protocol:
The respective abilities of NUC-1031 and gemcitabine to target CSCs were investigated in the AML cell line KG1a.
KG1a cells were cultured for 72 hours in the presence of a wide range of concentrations of each nucleoside analogue and their respective ProTides. Cells were then harvested and labelled with a cocktail of anti-lineage antibodies (PE-cy7), anti-CD34 (FITC), anti-CD38 (PE) and anti-CD123 (PERCP cy5). The sub-population expressing a leukaemic stem cell (LSC) phenotype were subsequently identified and were expressed as a percentage of all viable cells left in the culture. The percentages of stem cells remaining were then plotted on a dose-response graph and the proportion of cancer stem cells was compared across the various concentrations of ProTides and their respective parent compounds, in order to determine if they preferentially target cancer stem cells.
The data obtained in these experiments were evaluated using one way ANOVA. All data was confirmed as Gaussian or a Gaussian approximation using the omnibus K2 test. LD50 values were calculated from the non-linear regression and line of best-fit analysis of the sigmoidal dose-response curves. All statistical analyses were performed using Graphpad Prism 6.0 software (Graphpad Software Inc., San Diego, Calif.).

Assay [2] concerns primary acute myeloid leukaemia (AML) blasts. Kind of assay: In vitro cytotoxicity assay (LD50) in primary acute myeloid leukaemia cells. In kind it is cell-based, human. The settings on record: for LD50: primary AML blasts, 48 h, concentration required to kill 50% of the tumour cells in culture. The protocol: ProTide compounds, as defined herein, and the comparator ProTide compound NUC-1031 were assayed for their cytotoxic effects on primary cultures of acute myeloid leukaemia (AML) blasts. LD50 values (the concentration required to kill 50% of the tumour cells in culture) were calculated in respect of the ProTide compounds of the invention, and the parent compounds from which they are derived. […] The LD50 values of the ProTide compounds as defined herein (and their parent compounds) were compared with the comparator ProTide NUC-1031 and its parent compound gemcitabine.
Bone marrow samples were collected in ethylenediaminetetraacetic acid (EDTA) from newly diagnosed, previously untreated, acute myeloid leukaemia (AML) patients. AML blasts were enriched by density gradient centrifugation using Histopaque (Sigma, Poole, UK) and were subsequently maintained in Roswell Park Memorial Institute medium (RPMI) supplemented with 10% foetal bovine serum (FBS). Cells were treated with ProTide compounds (either as encompassed by the present invention, or the comparator ProTide NUC-1031) or with the ProTides' parent compounds at a range of experimental concentrations, and incubated for 48 h. All cultures were maintained at 37° C. in a 5% CO2 humidified atmosphere.
Cells were harvested and labelled with CD34-fluorescein isothiocyanate (FITC) (BD Biosciences, Buckingham, UK) and then resuspended in 200 μl of binding buffer containing 4 μl of annexin V labelled with allophycocyanin (APC) (eBioscience Ltd, Hatfield, UK). Apoptosis was quantified in the CD34^+ AML cells using an Accuri C6 flow cytometer (Becton Dickinson, CA, USA). At least 10,000 events were acquired and data were subsequently analysed using FlowJo software (Tree Star Inc., Ashland, Oreg., USA). All LD50 values (concentration of drug required to kill 50% of cells) were derived from the dose-response curves.

Entries after “also recorded” stand apart in the source; their conditions may differ.

These results are taken from patent US11400107B2, “Cancer treatments” (NuCana plc, priority 2016, dated 2022).

Take `C[C@H](NP(=O)(OC[C@H]1O[C@@H](n2cnc3c(N)nc(F)nc32)[C@H](O)C1O)Oc1ccccc1)C(=O)OCc1ccccc1` (stereo partly shown) [CPF-682]: in assay [1], the “selectivity against cancer stem cells compared to the parent compound” value (from here on “selectivity against cancer stem cells”) was “comparable”, the “proportion of cancer stem cells as compared to non-stem cancer cells after treatment” value is given as “significant decrease in the proportion of cancer stem cells” and the “selectivity for cancer stem cells as opposed to non-stem cancer cells (summary)” value (“selectivity … to non-stem cancer cells (summary)” for short) is given as “selectively target for cancer stem cells; also recorded: high selectivity for cancer stem cells”.

As to `C[C@H](NP(=O)(OC[C@H]1O[C@@H](n2cnc3c(=S)[nH]c(N)nc32)[C@@H](O)C1O)Oc1cccc2ccccc12)C(=O)OCc1ccccc1` (stereo partly shown) [CPF-775], in assay [1], the “selectivity against cancer stem cells” value is given as “statistically significant increases in selectivity at certain concentrations”, the “proportion of cancer stem cells as compared to non-stem cancer cells after treatment” value was “strong reduction in the proportion of cancer stem cells” and the “selectivity … to non-stem cancer cells (summary)” value is recorded as “selectively target for cancer stem cells; also recorded: high selectivity for cancer stem cells”.

Take `C[C@H](NP(=O)(OC[C@H]1O[C@@H](n2cc(F)c(=O)[nH]c2=O)CC1O)Oc1cccc2ccccc12)C(=O)OCc1ccccc1` (stereo partly shown) [CPF-373 (mix)]: the LD50 result in assay [2] is “CPF 373 (mix) 0.053 μM”.

As to `C[C@H](NP(=O)(OC[C@H]1O[C@@H](n2cc(F)c(=O)[nH]c2=O)CC1O)Oc1cccc2ccccc12)C(=O)OCCC(C)(C)C` (stereo partly shown) [CPF-585], in assay [1], the “proportion of cancer stem cells as compared to non-stem cancer cells after treatment” value is listed as “reduction in the proportion of cancer stem cells” and the “selectivity … to non-stem cancer cells (summary)” value is reported as “selectively target for cancer stem cells”. Further, the LD50 result in assay [2] is listed as “CPF 585 0.79 μM”.

`CCOC(=O)[C@H](C)NP(=O)(OC[C@H]1O[C@@H](n2cnc3c(N)nc(F)nc32)[C@H](O)C1O)Oc1cccc2ccccc12` (stereo partly shown) [CPF-544]: in assay [1], the “selectivity against cancer stem cells” value is on record as “comparable”, the “proportion of cancer stem cells as compared to non-stem cancer cells after treatment” value is “significant decrease in the proportion of cancer stem cells” and the “selectivity … to non-stem cancer cells (summary)” value is “selectively target for cancer stem cells; also recorded: high selectivity for cancer stem cells”.

For `CCCCCOC(=O)[C@@H](C)NP(=O)(OC[C@H]1O[C@@H](n2cnc3c(N)nc(Cl)nc32)[C@H](F)C1O)Oc1cccc2ccccc12` (stereo partly shown) [CPF-727], in assay [1], the “low concentration at which the selective reduction of cancer stem cells was still observed” value is listed as “approximately 6×10^−8 M”, the “proportion of cancer stem cells as compared to non-stem cancer cells after treatment” value is on record as “reduction in the proportion of cancer stem cells” and the “selectivity … to non-stem cancer cells (summary)” value is recorded as “selectively target for cancer stem cells”.

Consider `Nc1ccn([C@@H]2O[C@H](CO)[C@@H](O)C2(F)F)c(=O)n1` [Gemcitabine], for which the LD50 result in assay [2] is recorded as “Gemcitabine 1.4 μM”.

For the molecule `C[C@H](NP(=O)(OC[C@H]1O[C@@H](n2cc(F)c(=O)[nH]c2=O)CC1O)Oc1cccc2ccccc12)C(=O)OCc1ccccc1` (single isomer, unassigned) [CPF-373 (Iso A)], in assay [1], the “low concentration at which the selective reduction of cancer stem cells was still observed” value is given as “approximately 8×10^−8 M”, the “proportion of cancer stem cells as compared to non-stem cancer cells after treatment” value was “reduction in the proportion of cancer stem cells” and the “selectivity … to non-stem cancer cells (summary)” value is “selectively target for cancer stem cells; also recorded: high selectivity for cancer stem cells”. For the same molecule, the LD50 entry in assay [2] is “CPF 373 (Iso A) 0.052 μM”. In addition, the “potency as compared to the respective parent compound (summary)” value in assay [2] (summary statement of the description) is reported as “greater potency”.

For the molecule `OC[C@H]1O[C@@H](n2cnc3c(S)ncnc32)[C@H](O)[C@@H]1O` [Thioinosine], the “proportion of cancer stem cells as compared to non-stem cancer cells after treatment” value in assay [1] is on record as “reduction of the proportion of cancer stem cells”.

As for `Nc1nc(Cl)nc2c1ncn2[C@@H]1O[C@H](CO)[C@@H](O)[C@@H]1F` [Clofarabine], in assay [1], the “low concentration at which the selective reduction of cancer stem cells was still observed” value is recorded as “approximately 6×10^−8 M” and the “proportion of cancer stem cells as compared to non-stem cancer cells after treatment” value is on record as “reduction in the proportion of cancer stem cells”.

Turning to `C[C@H](NP(=O)(OC[C@H]1O[C@@H](n2cnc3c(N)nc(Cl)nc32)[C@H](F)C1O)Oc1cccc2ccccc12)C(=O)OCC(C)(C)C` (stereo partly shown) [CPF-720], in assay [1], the “low concentration at which the selective reduction of cancer stem cells was still observed” value is on record as “approximately 6×10^−8 M”, the “proportion of cancer stem cells as compared to non-stem cancer cells after treatment” value is “reduction in the proportion of cancer stem cells” and the “selectivity … to non-stem cancer cells (summary)” value was “selectively target for cancer stem cells”.

For the molecule `Nc1nc(Cl)nc2c1ncn2[C@H]1C[C@H](O)[C@@H](CO)O1` [Cladribine], the “proportion of cancer stem cells as compared to non-stem cancer cells after treatment” value in assay [1] is on record as “reduction in the proportion of cancer stem cells”.

Regarding `C[C@H](NP(=O)(OC[C@H]1O[C@@H](n2cnc3c(=S)[nH]cnc32)[C@@H](O)C1O)Oc1cccc2ccccc12)C(=O)OCc1ccccc1` (stereo partly shown) [CPF-761], in assay [1], the “selectivity against cancer stem cells” value is “greater selectivity; also recorded: most selective; also recorded: increase in selectivity was statistically significant”, the “proportion of cancer stem cells as compared to non-stem cancer cells after treatment” value is recorded as “reduction of the proportion of cancer stem cells” and the “selectivity … to non-stem cancer cells (summary)” value was “selectively target for cancer stem cells”.

Regarding `C[C@H](NP(=O)(Oc1cccc2ccccc12)OC1C[C@H](n2cnc3c(N)nc(Cl)nc32)O[C@@H]1CO)C(=O)OCc1ccccc1` (stereo partly shown) [CPF-791], in assay [1], the “selectivity against cancer stem cells” value was “greater selectivity”, the “proportion of cancer stem cells as compared to non-stem cancer cells after treatment” value is listed as “reduction in the proportion of cancer stem cells” and the “selectivity … to non-stem cancer cells (summary)” value is on record as “selectively target for cancer stem cells”.

Consider `C[C@H](NP(=O)(Oc1ccccc1)OC1C[C@H](n2cnc3c(N)nc(Cl)nc32)O[C@@H]1CO)C(=O)OCc1ccccc1` (stereo partly shown) [CPF-793], for which, in assay [1], the “low concentration at which the selective reduction of cancer stem cells was still observed” value is reported as “approximately 6×10^−8 M”, the “selectivity against cancer stem cells” value is “greater selectivity; also recorded: statistically significant”, the “proportion of cancer stem cells as compared to non-stem cancer cells after treatment” value was “reduction in the proportion of cancer stem cells; also recorded: particularly striking” and the “selectivity … to non-stem cancer cells (summary)” value is “selectively target for cancer stem cells; also recorded: high selectivity for cancer stem cells”.

As for `C[C@H](NP(=O)(OC[C@H]1O[C@@H](n2cnc3c(=S)[nH]cnc32)[C@@H](O)C1O)Oc1cccc2ccccc12)C(=O)OCC(C)(C)C` (stereo partly shown) [CPF-762], in assay [1], the “selectivity against cancer stem cells” value was “greater selectivity”, the “proportion of cancer stem cells as compared to non-stem cancer cells after treatment” value is listed as “reduction of the proportion of cancer stem cells” and the “selectivity … to non-stem cancer cells (summary)” value was “selectively target for cancer stem cells”.

For the molecule `C[C@H](NP(=O)(OC[C@H]1O[C@@H](n2cnc3c(N)nc(Cl)nc32)[C@H](F)C1O)Oc1ccccc1)C(=O)OCc1ccccc1` (stereo partly shown) [CPF-448], in assay [1], the “low concentration at which the selective reduction of cancer stem cells was still observed” value was “approximately 6×10^−8 M”, the “selectivity against cancer stem cells” value was “greater selectivity”, the “proportion of cancer stem cells as compared to non-stem cancer cells after treatment” value is “reduction in the proportion of cancer stem cells” and the “selectivity … to non-stem cancer cells (summary)” value is “selectively target for cancer stem cells; also recorded: high selectivity for cancer stem cells”.
